Results from US9012431B2, “Boron-containing small molecules as anti-inflammatory agents” (Anacor Pharmaceuticals, Inc., priority 2008, dated 2015).
Where a name gives a salt, the structure may show the parent alone.

Legend:
IFN-γ = test: Cytokine assay, IFN-γ release from PBMC; assay type: cell-based; settings: human PBMC, 20 ug/mL PHA, supernatant at 24 hours
In short: (§1)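 Cryopreserved human PBMC were thawed and resuspended in RPMI 1640 with 10% FBS. Test compounds, diluted from 10 mM DMSO stocks, were applied in triplicate at 10, 1, 0.1 and 0.01 μM, and cytokine release was measured.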

TNF-α = test: Cytokine assay, TNF-α release from PBMC; assay type: cell-based; settings: 1 μg/mL LPS; for IC50: Homo sapiens, PBMC, 24 h, supernatant at 24 hours
In short: as §1

IL-5 = test: Cytokine assay, IL-5 release from PBMC; assay type: cell-based; settings: human PBMC, 20 ug/mL PHA; for IC50: supernatant at 48 hours
In short: as §1

[1] = system: T1, PDE4 partially purified from human U-937 myeloid leukemia cells; test: PDE4 Assay (enzyme from U-937 cells, [3H]cAMP); assay type: biochemical; settings: PDE4 from U-937 cells, Tris buffer pH 7.5, 20 minutes at 25° C.
T1 construct: PDE4 partially purified from human U-937 myeloid leukemia cells was used

IL-10 = test: Cytokine assay, IL-10 release from PBMC; assay type: cell-based; settings: human PBMC, 20 ug/mL PHA; for IC50: supernatant at 48 hours
In short: as §1

BALB/c male mice = test: Oxazolone Induced Mouse Ear Edema Model; assay type: in vivo; settings: for inhibition in vivo at 1 mg: 1 mg/ear × 2 topical; for inhibition in vivo at 0.2 mg: 0.2 mg/ear × 2 topical; for inhibition in vivo at 3 mg: 3 mg/ear × 2 topical
Experimental: 2. In Vivo Anti-Inflammation Activity in Oxazolone Induced Mouse Ear Edema Model
Groups of 5 BALB/c male mice weighing 23±2 g were used. The preshaved abdomens of test animals were sensitized by application of 100 μl, of 1.5% oxazolone solution dissolved in acetone. Seven days after the initial sensitization, test substances, as well as vehicle (acetone:ethanol/1:1, 20 μL/ear) were each administered topically to the anterior and posterior surfaces of the right ear 30 minutes before, and 15 minutes after, challenge by a second application of oxazolone (1% in acetone, […]) via topical route. As a positive control, indomethacin (0.3 mg/ear×2) was administered topically using the same treatment regime as for the test compounds. Twenty-four hours after the second application of oxazolone, the ear thickness of each mouse was measured with a Dyer model micrometer gauge. A 30 percent or more inhibition in ear swelling relative to the vehicle control was considered significant and indicated possible anti-inflammatory activity.

IL-2 = test: Cytokine assay, IL-2 release from PBMC; assay type: cell-based; settings: human PBMC, 20 ug/mL PHA; for IC50: supernatant at 24 hours
In short: as §1

[2] = system: CD-1 (Crl.) derived male mice; test: Phorbol Ester Induced Mouse Ear Edema Model; assay type: in vivo; settings: topical, 6 h; for inhibition in vivo at 0.2 mg: 0.2 mg/ear × 2 topical
Experimental: 1. In Vivo Anti-Inflammation Activity in Phorbol Ester Induced Mouse Ear Edema Model
[…] Dexamethasone (1 mg/ear×2) used as the positive control was administered topically to test animals using the same application schedule. Ear swelling was then measured by a Dyer model micrometer gauge at 6 hours after PMA application as an index of inflammation. Percent inhibition was calculated according to the formula: [(Ic−It)/Ic]×100%, where Ic and It refer to increase of ear thickness (mm) in control and treated mice, respectively.

[3] = Acetone:Ethanol/1:1, ear thickness 24 hours after second oxazolone application
[4] = Acetone:Ethanol/1:1, ear swelling 6 hours after PMA
[5] = 1 mg/ear × 2 topical, Acetone:Ethanol/1:1, ear swelling 6 hours after PMA
[6] = 95% Ethanol, ear thickness 24 hours after second oxazolone application
[7] = 1 mg/ear topical, Acetone:Ethanol/1:1, ear swelling 6 hours after PMA

SMILES	IC50 (IFN-γ)	IC50 (TNF-α)	IC50 (IL-5)	IC50 [1]	IC50 (IL-10)	inhibition in vivo at 1 mg (BALB/c male mice; [3])	IC50 (IL-2)	inhibition in vivo at 1 mg [2, 5]	other results
COc1nc(Oc2cc3c(cc2F)B(O)OC3)ccc1C#N [D122, 6-(6-Fluoro-1-hydroxy-1,3-dihydrobenzo[c][1,2]oxaborol-5-yloxy)-2-methoxynicotinonitrile]	< 1 µM	< 1 µM	< 1 µM	< 1 µM	< 1 µM	< 20%	< 1 µM		
CCOC(=O)c1cnc(Oc2ccc3c(c2)COB3O)c(Cl)c1 [D48, Ethyl 5-chloro-6-(1-hydroxy-1,3-dihydrobenzo[c][1,2]oxaborol-5-yloxy)nicotinate]	< 1 µM	< 1 µM		< 1 µM		20 to 30%	< 1 µM	< 30%	inhibition in vivo at 0.2 mg [2, 4]: < 30%; inhibition in vivo at 0.2 mg (BALB/c male mice; [3]): < 20%
O=C(O)c1ccc(Oc2ccc3c(c2)COB3O)nc1 [D61, 6-(1-Hydroxy-1,3-dihydrobenzo[c][1,2]oxaborol-5-yloxy)nicotinic acid]						< 20%		30 to 60%	inhibition at 10 µM (TNF-α; human PBMC, 24 hours, 10 μM): < 30%; inhibition at 10 µM (IL-5; 48 hours, 10 μM): 30 to 60%; inhibition in vivo at 0.1 mg ([2]; 0.1 mg/ear × 2 topical, Acetone:Ethanol/1:1, ear swelling 6 hours after PMA): < 30%; inhibition in vivo at 0.2 mg [2, 4]: < 30%; inhibition at 10 µM (IL-10; 48 hours, 10 μM): < 30%; inhibition in vivo at 0.1 mg (BALB/c male mice; 0.1 mg/ear × 2 topical, Acetone:Ethanol/1:1, ear thickness 24 hours after second oxazolone application): < 20%; inhibition in vivo at 0.2 mg (BALB/c male mice; [3]): < 20%; inhibition at 10 µM (IL-2; 24 hours, 10 μM): < 30%
COCCN(C)c1nc(Oc2ccc3c(c2)COB3O)ccc1C#N [D96, 6-(1-hydroxy-1,3-dihydro-benzo[c][1,2]oxaborol-5-yloxy)-2-[(2-methoxy-ethyl)-methyl-amino]-nicotinonitrile]	< 1 µM	< 1 µM	1 to 4 µM	< 1 µM	1 to 4 µM	< 20%	< 1 µM		
COc1ccc2c(c1)c(CC(=O)O)c(C)n2C(=O)c1ccc(Cl)cc1 [Indomethacin, indomethacin, reference compound]									inhibition in vivo at 0.3 mg (BALB/c male mice; 0.3 mg/ear × 2 topical, 95% Ethanol, ear thickness 24 hours after second oxazolone application): 40 to 60%
N#Cc1ccc(Oc2ccc3c(c2)COB3O)c(Cl)c1 [D4, 5-(2-Chloro-4-cyanophenoxy)-1,3-dihydro-1-hydroxy-2,1-benzoxaborole]	< 1 µM	< 1 µM	< 1 µM	< 1 µM	> 10 µM	30 to 40%	< 1 µM		inhibition in vivo at 0.02 mg (BALB/c male mice; 0.02 mg/ear × 2 topical, Acetone:Ethanol/1:1, ear thickness 24 hours after second oxazolone application): < 20%
COCCNc1nc(Oc2ccc3c(c2)COB3O)ccc1C#N [D111, 6-(1-Hydroxy-1,3-dihydro-benzo[c][1,2]oxaborol-5-yloxy)-2-(2-methoxy-ethylamino)-nicotinonitrile]		< 1 µM							inhibition in vivo at 0.015 mg ([2]; 0.015 mg/ear × 2 topical, 95% Ethanol, ear swelling 6 hours after PMA): < 30%; inhibition in vivo at 0.05 mg ([2]; 0.05 mg/ear × 2 topical, 95% Ethanol, ear swelling 6 hours after PMA): < 30%; inhibition in vivo at 0.15 mg ([2]; 0.15 mg/ear × 2 topical, 95% Ethanol, ear swelling 6 hours after PMA): < 30%; inhibition in vivo at 1 mg ([2]; 1 mg/ear × 2 topical, 95% Ethanol, ear swelling 6 hours after PMA): < 30%; inhibition in vivo at 0.15 mg (BALB/c male mice; 0.15 mg/ear × 2 topical, 95% Ethanol, ear thickness 24 hours after second oxazolone application): < 20%
CCOC(=O)c1ccc(Oc2ccc3c(c2)COB3O)nc1OCC [D27, Ethyl 2-ethoxy-6-(1-hydroxy-1,3-dihydrobenzo[c][1,2]oxaborol-5-yloxy)nicotinate]	< 1 µM	< 1 µM		< 1 µM			< 1 µM		inhibition in vivo at 3 mg (BALB/c male mice; [6]): 20 to 30%
CN1CCN(Cc2cc(C#N)ccc2Oc2ccc3c(c2)COB3O)CC1 [D33, 1-(5-cyano-2-(1-hydroxy-1,3-dihydrobenzo[c][1,2]oxaborol-5-yloxy)benzyl)-4-methylpiperazine-1,4-diium]	< 1 µM	< 1 µM	< 1 µM	< 1 µM	< 1 µM		< 1 µM		inhibition in vivo at 1 mg [2, 7]: < 30%
CCOC(=O)COc1cc(C#N)ccc1Oc1ccc2c(c1)COB2O [D16, 5-[4-Cyano-2-(ethoxycarbonylmethoxy)phenoxy]-1,3-dihydro-1-hydroxy-2,1-benzoxaborole]	< 1 µM	< 1 µM		< 1 µM			1 to 4 µM	90 to 100%	inhibition in vivo at 0.2 mg [2, 4]: 60 to 90%; inhibition in vivo at 3 mg (BALB/c male mice; [6]): < 20%
COc1cc(C#N)ccc1Oc1ccc2c(c1)COB2O [D15, 5-(4-Cyano-2-methoxyphenoxy)-1,3-dihydro-1-hydroxy-2,1-benzoxaborole]	< 1 µM	< 1 µM		< 1 µM		40 to 60%	< 1 µM	30 to 60%	
N#Cc1ccc(Oc2ccc3c(c2)COB3O)nc1OC1CCCC1 [D100, 2-Cyclopentyloxy-6-(1-hydroxy-1,3-dihydro-benzo[c][1,2]oxaborol-5-yloxy)-nicotinonitrile]	< 1 µM	< 1 µM	< 1 µM	< 1 µM	< 1 µM		< 1 µM		inhibition in vivo at 0.028 mg ([2]; 0.028 mg/ear × 2 topical, 95% Ethanol, ear swelling 6 hours after PMA): < 30%; inhibition in vivo at 0.28 mg ([2]; 0.28 mg/ear × 2 topical, 95% Ethanol, ear swelling 6 hours after PMA): 30 to 60%
COc1cc(Oc2ccc3c(c2)COB3O)ncc1C#N [D109, 6-(1-Hydroxy-1,3-dihydro-benzo[c][1,2]oxaborol-5-yloxy)-4-methoxy-nicotinonitrile]	< 1 µM	< 1 µM	< 1 µM	< 1 µM	< 1 µM		< 1 µM		inhibition in vivo at 0.02 mg ([2]; 0.02 mg/ear × 2 topical, 95% Ethanol, ear swelling 6 hours after PMA): < 30%; inhibition in vivo at 0.067 mg ([2]; 0.067 mg/ear × 2 topical, 95% Ethanol, ear swelling 6 hours after PMA): < 30%; inhibition in vivo at 0.2 mg ([2]; 95% Ethanol, ear swelling 6 hours after PMA): < 30%
COC(=O)c1ccc(Oc2ccc3c(c2)COB3O)c(F)c1 [D50, 5-(2-Fluoro-4-methoxycarbonylphenoxy)-1-hydroxy-2,1-benzoxaborole]	< 1 µM	< 1 µM	1 to 4 µM	< 1 µM	4 to 10 µM		< 1 µM	60 to 90%	
CN(C)Cc1cc(C#N)ccc1Oc1ccc2c(c1)COB2O [D34, 1-(5-cyano-2-(1-hydroxy-1,3-dihydrobenzo[c][1,2]oxaborol-5-yloxy)phenyl)-N,N-dimethylmethanaminium]	< 1 µM	1 to 4 µM	1 to 4 µM	1 to 4 µM	1 to 4 µM		< 1 µM		inhibition in vivo at 1 mg [2, 7]: < 30%
COC(=O)c1ccc(Oc2ccc3c(c2)COB3O)nc1 [D65, Methyl 6-(1-hydroxy-1,3-dihydrobenzo[c][1,2]oxaborol-5-yloxy)nicotinate]	< 1 µM	< 1 µM	< 1 µM	< 1 µM	< 1 µM		< 1 µM	30 to 60%	
N#Cc1ccc(Oc2ccc3c(c2)COB3O)c(CN2CCOCC2)c1 [D32, 4-(5-cyano-2-1-hydroxy-1,3-dihydrobenzo[c][1,2]oxaborol-5-yloxy)benzyl)morpholine hydrochloride]	< 1 µM	< 1 µM	< 1 µM	< 1 µM	< 1 µM		< 1 µM	< 30%	inhibition in vivo at 1 mg [2, 7]: < 30%
